Read-outs that look alike come from different tables or passages of the source.
What was measured:
[1] = system: baby hamster kidney (BHK) cells; test: Cytotoxicity, CellTiter96 Proliferation Assay on BHK cells; format: cell-based
Description: The cytotoxicity of Co(NH3)6 (Structure IV) was assessed by monitoring its ability to inhibit proliferation of baby hamster kidney (BHK) cells. BHK cells were cultured as exponentially growing subconfluent monolayers in complete growth medium, particularly Dulbecco's Modified Eagle's Medium (DMEM) supplemented with 1% (v/v) antibiotic/antimycotic agent and 10% (v/v) heat inactivated fetal bovine serum (FBS). Cells were grown in either T25 or T75 flasks (Acton, Mass.) and incubated at 37° C. under 5% CO2 atmosphere. A subculture was performed every 3-4 days.
The in vitro toxicity of Co(NH3)6 was determined using the CellTiter96® Proliferation Assay (Promega, Madison, Wis.). This quantitative calorimetric assay is based upon the enzymatic conversion of a tetrazolium salt substrate into a blue formazan product with a maximum absorbance at 570 nm. […] At the assay endpoint, the absorbance at 570 nm is directly proportional to the number of viable cells. To assess compound toxicity, BHK cells were seeded into the wells of a 96-well tissue culture microtiter plate (2×10^4 cells/well) and cultured overnight at 37° C. in a humidified atmosphere containing 5% CO2. The next day, Co(NH3)6 was diluted into tissue culture media (at final concentrations ranging from 0 to 5 mM) and incubated with the cells for 72 hrs. Triplicate wells were included for each concentration. To control for any contaminating absorbance due to the compounds, control wells containing no cells were included at each compound concentration (“no cell” wells). At the end of the 72 hour culture period, 15 μL of tetrazolium substrate was added to each well and the plate was returned to the incubator for 4 hours to allow viable cells to convert the substrate into the formazan product. At the end of the 4 hour incubation period, 100 μL of solubilization solution was added to each well and the plate was subsequently incubated overnight to completely solubilize the contents of each well to a homogeneous color. The absorbance within each of the “no cell” wells was subtracted from the absorbance measured in the corresponding wells containing cells for each concentration of Co(NH3)6.

[2] = system: mRNA luciferase template; test: Rabbit Reticulocyte Lysate Translation System, luciferase mRNA translation (Western blot); format: biochemical; settings: same test, CoCyclen data not provided
Description: CoHex is capable of preventing translation of a messenger RNA (mRNA) in vitro. The ability Co(NH3)6 to inhibit translation of an mRNA luciferase template was assessed using the Rabbit Reticulocyte Lysate Translation System (Promega) according to the manufacturer's instructions. In the example discussed below, Co(NH3)6 in various concentrations was incubated with the […] for 10 minutes before the addition of the mRNA template to the translation lysate. Translated luciferase protein was run on a 10% SDSPAGE gel for 45 min at 130 V and detected by Western blot on a PVDF membrane. Proteins were detected using a streptavidinalkaline phosphatase conjugate and Western Blue substrate according to the instructions in the Transcend Non-Radioactive Translation Detection System (Promega). In FIG. 2, Lane 1 represents the incubation of 0.01 mM Co(NH3)6. Lane 2 represents the incubation of 0.02 mM Co(NH3)6. Lane 3 represents the incubation of 0.05 mM Co(NH3)6. Lane 4 represents the incubation of 0.1 mM Co(NH3)6. Lane 5 represents the incubation of 0.2 mM Co(NH3)6. Lane 6 is a positive control in which no Co(NH3)6 is added. Lane 7 is a negative control in which no translation occurs. The lanes marked M are molecular weight marker lanes. […]

[3] = system: Sindbis virus; test: Sindbis virus plaque formation assay in BHK cells; format: cell-based, Sindbis virus (633-EGFP strain); settings: 48 hours
[4] = system: Adenovirus; test: Flow cytometry propidium iodide viability of Adenovirus-infected A549 cells; format: cell-based; settings: 6 hour pretreatment, 48 hours post infection, increasing concentration up to 0.0621 mM
From the text: Another example of antiviral activity is an in vitro model of a double stranded DNA (dsDNA) virus infection, Adenovirus. […] The same flow cytometry procedure discussed above for Sindbis viral infection in BHK cells was used for Adenovirus viral infection in A549 cells.

[5] = Ligand exchange with free histidine by UV-VIS and NMR; format: physicochemical; settings: ratio 100:1 histidine to Co(NH3)6, results not shown
[6] = system: Sindbis virus; test: Log(PFU) per percent cell survival, plaque counts combined with CellTiter96 survival of infected BHK cells; format: cell-based; settings: with increase in concentration, FIG. 4
From the text: Because live cell counts will decrease with increasing CoHex complex due to cytotoxicity of the cells and virus replication, but increase due to the anti-viral protection of CoHex, the plaque counts may have decreased due to the fact that there were less live cells available to count. […] The data of FIG. 3C was obtained using the CellTiter96 cell proliferation assay described above for the CoHex cytotoxicity data (i.e., with respect to FIG. 1) in which the cells were further infected with 5 plaque forming units per cell of Sindbis virus in DMEM containing 2% FBS in the absence or presence of various concentrations of Co(NH3)6, then assayed periodically.
Therefore, the fraction cell survival data of FIG. 3C was combined with the log pfu data of FIG. 3A to generate a ratio, Log(PFU) per percent cell survival, which although not a physical measure, is a general model of viruses in surviving cells.

[7] = system: Sindbis virus
Description: In these assays, Sindbis virus replication was assessed by monitoring viral structural protein synthesis using a recombinant Sindbis virus construct. In this construct, the gene encoding enhanced green fluorescent protein (EGFP) was placed under the control of the same promoter sequence that drives transcription of viral structural proteins. Thus, upon Sindbis virus replication, virally infected cells produce intracellular EGFP at levels that are proportional to the level of viral structural proteins.
BHK cells (1×10^5) were plated into the wells of 24-well plates in 1 mL of complete media and incubated with increasing concentrations of Co(NH3)6 for 6 hours prior to infection with Sindbis virus at a multiplicity of infection (moi) of 5 pfu per cell. The infection was allowed to proceed for 48 hours. In preparation for analysis by flow cytometry, cells from each well were removed and pelleted, washed with PBS, and resuspended in 500 μL of PBS. One half of each sample was analyzed directly to determine the percentage of EGFP-positive cells (percent infected cells). The other half of each sample was incubated with 5 μM propidium iodide for 1 minute prior to the determination of the percentage of non-viable cells. In all cases, analysis was performed on 1×10^4 cells.
BHK cells were pretreated with Co(NH3)6 for 6 hours prior to infection with Sindbis virus. After 48 hours post infection, both the percentage of Sindbis-infected cells (as evidenced by EGFP fluorescence) and the percentage of viable cells (as determined by the exclusion of propidium iodide (PI)) were determined as a function of Co(NH3)6 concentrations.

For Co(NH3)6, the cell viability ([1]; 72 hrs, at 2.5 mM) was “about 80%”, the CC50 ([1]; 72 hrs, from FIG. 1, read-out: 50% cytotoxicity concentration (CC50)) was about 3200 µM and the “toxicity compared with cis-Platin” value ([1]; FIG. 1) was “much less toxic”. For the same substance, the “toxicity (inhibition of cellular proliferation)” value ([1]; concentrations below 0.3 mM) was “no significant toxicity”, the “toxicity (inhibition of cellular proliferation)” value ([1]; concentrations below 2.5 mM) was “only mildly toxic” and the “concentration of maximum toxicity” value ([1]; highest concentration tested) was 5000 µM. The “inhibition of protein translation relative to conventional CoCyclen structure” value [2] was “about 10 times”, the IC50 ([3]; BHK cells, read-out: IC50, inhibition of Sindbis virus plaque formation) was about 100 µM and the “maximal inhibition of virus replication, decrease in pfu over control” value ([3]; at about 2.5 mM) was “about 2.5 log”. For the same substance, the “survival rate of Adenovirus-infected A549 cells” value [4] was “increase in survival rate”, the “exchange of ammonia groups with free histidine” value [5] was “does not appear to have labile ligands” and the “Log(PFU) per percent cell survival” value [6] was “significant decrease in viral infection”. The “selectivity ratio CC50/IC50” value ([7]; Sindbis virus over BHK cells) was “about 25”, the “percentage of EGFP-positive (Sindbis-infected) cells” value ([7]; at 0.15 mM) was “distinct decrease” and the “effect of timing of administration on inhibition of EGFP expression” value ([7]; pretreatment, co-infection or early post-treatment) was “equally effective”. The IC50 ([7]; read-out: IC50, inhibition of EGFP expression, 6 hours pretreatment, 48 hours post infection, moi 5) was 130 ± 40 µM.

— patent US20080182835A1 (priority 2006, published 2008)
